Test results published in patent publication US20140249031A1, “MICELLE-COATED CRYSTALLINE PARTICLES” (SYNGENTA LIMITED, priority 2011, published 2014).

What was measured:
[1] = Visual release rate test of Bitrex in water; format: physicochemical; conditions: after 15 minutes; 0.4 mg agitated in 10 ml of water
Description: 0.4 mg of sample was agitated in 10 ml of water and observed over 8 hours.

[2] = UV/Vis release rate measurement of Bitrex in water; format: physicochemical; conditions: 100 mg in 40 ml water
Description: 2 ml of the mixture was removed at each time interval for analysis.

For `CC[N+](CC)(CC(=O)Nc1c(C)cccc1C)Cc1ccccc1` [uncoated Bitrex, denatonium benzoate], the “visual release: state of sample in water” value [1] was “fully dissolved”, the “% release of Bitrex relative to the total content” value ([2]; 5 minutes) was 99.6% and the “% release of Bitrex relative to the total content” value ([2]; 15 minutes) was 99.8%.
